The inhibition is how much of the control response was suppressed. What is called IC50 is the concentration at which inhibition is half-maximal. Read a low IC50 as higher potency.

Inhibition and IC50 data for ten compounds are collected here from patent US20070117858A1, “SUBSTITUTED 5-HETEROARYL-1-PHENYL-PYRAZOLE CANNABINOID MODULATORS” (priority 2005, published 2007).

Experiment [1] has as its target T1, human CB1 receptor (Homo sapiens, UniProt P21554).
T1 construct: expressed in transfected cells; host or cells: SK-N-MC cells, stably transfected with pcDNA3 CB-1 (human); semi-purified membrane pellet
Kind of experiment: Cannabinoid CB1 receptor binding assay ([3H]-CP-55,940 displacement, SK-N-MC cell membranes). The conditions noted are these: for inhibition at 0.2 µM: 1.5 h, read-out: Cannabinoid CB1 Receptor Binding, percent inhibition. As for the experimental part:
(§1) Binding Assay for CB1 or CB2 Agonists or Inverse Agonists
(§2) The human CB1 and CB2 receptors were stably expressed in SK-N-MC cells transfected with pcDNA3 CB-1 (human) or pcDNA3 CB-2 (human). The cells were grown in T-180 cell culture flasks under standard cell culture conditions at 37° C. in a 5% CO2 atmosphere. The cells were harvested by trysinization and homogenized in a homogenization buffer (10 mM Tris, 0.2 mM MgCl2, 5 mM KCl, with protease inhibitors aprotinin, leupeptin, pepstatin A and bacitracin) and centrifuged (2000 g). The supernatant was then centrifuged in 2M sucrose (31,300 g) to produce a semi-purified membrane pellet. The pellet was resuspended in homogenization and stored at −80° C.
(§3) On the day of the assay, the pellet was thawed on ice and diluted in assay buffer (50 mM Tris-HCl, 5 mM MgCl2, 2.5 mM EDTA, 0.5 mg/mL fatty acid free bovine serum albumin, pH 7.5). The diluted membrane pellet was added with buffer, either a test compound or vehicle standard and the radioligand […] (0.2 nM) to the wells of a 96-well polypropylene plate. Non-specific binding was measured in wells containing W1N 55,212 (10 uM). The plate was covered and incubated for 90 minutes at 30° C. The contents were then aspirated onto a Packard Unifilter GF/C filter bottom plate prewet with 0.5% polyethyleneimine. The wells of the polypropylene plate were rinsed and aspirated seven times with a 0.9% saline-0.5% Tween 20 solution. The Unifilter plate was dried, scintillation cocktail was added to each well and the counts representing binding were quantitated in a TopCount scintillation counter.
(§4) For compounds tested, an IC50 binding value was obtained from percent inhibition studies in which various test concentrations were used. The binding value was calculated by linear regression.
(§5) For compounds without an IC50 binding value, the percent inhibition (%) was obtained at a test concentration of 0.2 μM.

For experiment [2], the target named is T2, human CB2 receptor (Homo sapiens, UniProt P34972).
T2 construct: expressed in transfected cells; host or cells: SK-N-MC cells, stably transfected with pcDNA3 CB-2 (human); semi-purified membrane pellet
T2 sequence (P34972 whole entry): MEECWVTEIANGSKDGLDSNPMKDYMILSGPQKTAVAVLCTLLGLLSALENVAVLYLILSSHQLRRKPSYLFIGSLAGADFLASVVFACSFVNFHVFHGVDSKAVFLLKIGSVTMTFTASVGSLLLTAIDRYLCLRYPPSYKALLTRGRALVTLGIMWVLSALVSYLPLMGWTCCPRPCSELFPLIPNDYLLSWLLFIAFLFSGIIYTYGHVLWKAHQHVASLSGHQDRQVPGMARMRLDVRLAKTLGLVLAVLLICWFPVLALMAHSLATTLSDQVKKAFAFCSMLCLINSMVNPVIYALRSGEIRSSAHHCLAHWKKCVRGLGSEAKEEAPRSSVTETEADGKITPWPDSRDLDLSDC
Briefly: Cannabinoid CB2 receptor binding assay ([3H]-CP-55,940 displacement, SK-N-MC cell membranes). Particulars: 1.5 h; test concentration of 0.2 μM; radioligand CP-55,940 0.2 nM; read-out: Cannabinoid CB2 Receptor Binding, percent inhibition. As to the method:
as §1, §2, §3, §4, §5

T1 sequence (P21554 whole entry): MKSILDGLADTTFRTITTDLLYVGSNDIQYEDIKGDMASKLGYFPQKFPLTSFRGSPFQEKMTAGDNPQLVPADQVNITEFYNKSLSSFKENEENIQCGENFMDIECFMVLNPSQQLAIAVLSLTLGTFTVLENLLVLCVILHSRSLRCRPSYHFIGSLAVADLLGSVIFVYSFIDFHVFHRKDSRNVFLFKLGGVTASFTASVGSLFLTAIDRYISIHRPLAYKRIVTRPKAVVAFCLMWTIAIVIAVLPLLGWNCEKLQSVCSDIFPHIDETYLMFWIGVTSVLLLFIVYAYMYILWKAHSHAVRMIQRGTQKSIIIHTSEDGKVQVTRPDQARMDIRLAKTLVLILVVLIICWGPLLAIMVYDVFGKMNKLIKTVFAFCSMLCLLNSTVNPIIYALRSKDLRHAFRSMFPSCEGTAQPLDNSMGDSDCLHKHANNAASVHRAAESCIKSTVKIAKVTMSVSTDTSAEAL

As to `Cc1ccc(-c2c(C)c(C(=O)N[C@H](C)C3CCCCC3)nn2-c2ccc(Cl)cc2Cl)o1` [Cpd 57, 1-(2,4-dichloro-phenyl)-4-methyl-5-(5-methyl-furan-2-yl)-1H-pyrazole-3-carboxylic acid [(1R)-1-cyclohexyl-ethyl]-amide], the results for the inhibition at 0.2 µM in experiment [1] and in experiment [2] were 46% and 28%, respectively.
Turning to `Cc1c(C(=O)NN2CCCCC2)nn(-c2ccc(Cl)cc2Cl)c1-c1ccc(Br)s1` [Cpd 22, 5-(5-bromo-thiophen-2-yl)-1-(2,4-dichloro-phenyl)-4-methyl-1H-pyrazole-3-carboxylic acid piperidin-1-ylamide], the half-inhibitory concentration (IC50) in experiment [1] is 0.037 µM. The inhibition at 0.2 µM in experiment [2] came out at 42%.
As to `C[C@@H](NC(=O)c1nn(-c2ccc(Cl)cc2Cl)c(-c2cccs2)c1C#N)C1CCCCC1` [Cpd 18, 4-cyano-1-(2,4-dichloro-phenyl)-5-thiophen-2-yl-1H-pyrazole-3-carboxylic acid [(1R)-1-cyclohexyl-ethyl]-amide], the inhibition at 0.2 µM in experiment [1] is 66%; in experiment [2], 21%.
Take `Cc1c(C(=O)N[C@H](C)c2ccccc2)nn(-c2ccc(Cl)cc2Cl)c1-c1ccc(F)s1` [Cpd 32, 1-(2,4-dichloro-phenyl)-5-(5-fluoro-thiophen-2-yl)-4-methyl-1H-pyrazole-3-carboxylic acid [(1R)-1-phenyl-ethyl]-amide]: the 50% inhibitory concentration (IC50) in experiment [1] came to 0.046 µM. Besides, the inhibition at 0.2 µM in experiment [2] came to 55%.
Turning to `C[C@H](NC(=O)c1nn(-c2ccc(Cl)cc2Cl)c(-c2ccc(Cl)s2)c1C#N)c1ccccc1` [Cpd 26, 5-(5-chloro-thiophen-2-yl)-4-cyano-1-(2,4-dichloro-phenyl)-1H-pyrazole-3-carboxylic acid [(1S)-1-phenyl-ethyl]-amide], the IC50 in experiment [1] came to 0.11 µM. In addition, the inhibition at 0.2 µM in experiment [2] amounted to 16%.
In experiment [1], `N#Cc1c(C(=O)NN2CCCCC2)nn(-c2ccc(Cl)cc2Cl)c1-c1ccc(Cl)s1` [Cpd 23, 5-(5-chloro-thiophen-2-yl)-4-cyano-1-(2,4-dichloro-phenyl)-1H-pyrazole-3-carboxylic acid piperidin-1-ylamide] came in with an IC50 of 0.071 µM. For the same compound, the inhibition at 0.2 µM in experiment [2] came to 22%.
Taken in the same sequence, the figures for `CCc1c(C(=O)N[C@@H](C)C2CCCCC2)nn(-c2ccc(Cl)cc2Cl)c1-c1ccc(Br)s1` [Cpd 43, 5-(5-bromo-thiophen-2-yl)-1-(2,4-dichloro-phenyl)-4-ethyl-1H-pyrazole-3-carboxylic acid [(1S)-1-cyclohexyl-ethyl]-amide] were 0.008 µM and 39%.
As to `CCc1c(C(=O)NN2CCCCC2)nn(-c2ccc(Cl)cc2Cl)c1-c1ccc(Cl)s1` [Cpd 15, 5-(5-chloro-thiophen-2-yl)-1-(2,4-dichloro-phenyl)-4-ethyl-1H-pyrazole-3-carboxylic acid piperidin-1-ylamide], the IC50 in experiment [1] turned out to be 0.012 µM. Besides, in experiment [2], the inhibition at 0.2 µM is 29%.
Taken in the same sequence, the figures for `CCc1c(C(=O)N[C@@H](C)c2ccccn2)nn(-c2ccc(Cl)cc2Cl)c1-c1ccc(Br)s1` [Cpd 41, 5-(5-bromo-thiophen-2-yl)-1-(2,4-dichloro-phenyl)-4-ethyl-1H-pyrazole-3-carboxylic acid [(1S)-1-pyridin-2-yl-ethyl]-amide] were 0.015 µM and 45%.
For the compound `CCc1c(C(=O)N[N+]2(C)CCCCC2)nn(-c2ccc(Cl)cc2Cl)c1-c1ccc(Br)s1` [Cpd 52, 1-{[5-(5-bromo-thiophen-2-yl)-1-(2,4-dichloro-phenyl)-4-ethyl-1H-pyrazole-3-carbonyl]-amino}-1-methyl-piperidinium], the inhibition at 0.2 µM in experiment [1] was found to be 51%; in experiment [2] it was 0%.
